According to the supplement of paper PMC4862054:

Test system: MDA-MB-231
Test: drug sensitivity score (DSS), CellTiter-Glo (DSS (AUC-based score)); higher = stronger drug effect (viability inhibition or cytotoxicity); extreme values may be limits of the assay
Details: incubation time: 72 h
Method in brief: (§1)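 The drug sensitivity score reflects the area under a fitted dose-response curve. To obtain it, breast cancer cells in 20 µl suspension were seeded into 384-well plates containing compound at 5 concentrations, 10-fold apart over a compound-specific 10,000-fold range, and incubated 72 h. CellTox Green fluorescence (485/520 nm) was read first and CellTiter-Glo luminescence second, after 10 min at room temperature. Each plate was normalised to 0.1 % DMSO and a positive kill control.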

First: COC(=O)c1ccc2c(c1)NC(=O)/C2=C(\Nc1ccc(N(C)C(=O)CN2CCN(C)CC2)cc1)c1ccccc1 [Nintedanib]
Second: CNC(=O)c1ccc(N2C(=S)N(c3ccc(C#N)c(C(F)(F)F)c3)C(=O)C23CCC3)cc1F [RD162]
The drug sensitivity score of the first is higher: 6.66 for the first, 0 for the second.

`COc1cc2c(NC3CCN(C(C)C)CC3)nc(N3CCC(F)(F)CC3)nc2cc1OCCCN1CCCC1` [UNC0642] was tested, and the drug sensitivity score was 3.72.

Test system: MDA-MB-436
Test: as above
Details: incubation time: 72 h
Method in brief: as §1

Compared with `CCn1c(-c2nonc2N)nc2cnc(Oc3cccc(NC(=O)c4ccc(OCCN5CCOCC5)cc4)c3)cc21`, `COc1cc2ncnc(Nc3ccc(F)c(Cl)c3)c2cc1OCCCN1CCOCC1` [Gefitinib] is lower in drug sensitivity score: 1.31 for the first, 0 for the second.

Going from `N#Cc1ccc(COC[C@H]2O[C@@H](n3c(NCc4ccc(Cl)c(Cl)c4)nc4c(N)ncnc43)[C@H](O)[C@@H]2O)cc1` to `CCOC(=O)CCNc1cc(N2CCc3ccccc3CC2)nc(-c2ccccn2)n1` [GSK-J4], the drug sensitivity score rises from 0 to 15.7.

Compared with `COc1cc(O)c2c(c1)/C=C/C[C@H](O)[C@H](O)C(=O)/C=C\C[C@H](C)OC2=O` [(5Z)-7-Oxozeaenol], `COc1cc(OC2CCN(C)CC2)ccc1Nc1ncc2c(n1)n(C1CCCC1)c(=O)n2C` [AZ 3146] is lower in drug sensitivity score: 7.08 for the first, 0 for the second.

First: CNC(=O)c1cccc(-c2ccc3c(N4CCOC[C@@H]4C)nc(N4CCOC[C@@H]4C)nc3n2)c1 [AZD2014]
Second: Cc1cc(Nc2cc(CN3CCOCC3)c3nc(C)c(Cc4ccc(Cl)cc4F)n3n2)n[nH]1 [Gandotinib]
The drug sensitivity score of the first is higher: 11.1 for the first, 4.83 for the second.

Going from `CN(C)c1nc(N(C)C)nc(N(C)C)n1` [Altretamine] to `COc1cc2c(NC3CCN(C(C)C)CC3)nc(N3CCC(F)(F)CC3)nc2cc1OCCCN1CCCC1` [UNC0642], the drug sensitivity score rises from 0 to 4.42.

`Nc1cc(C(F)(F)F)c(-c2cc(N3CCOCC3)nc(N3CCOCC3)n2)cn1` [Buparlisib] and `CNC(=O)c1ccc(N2C(=S)N(c3ccc(C#N)c(C(F)(F)F)c3)C(=O)C23CCC3)cc1F` [RD162] are the same in drug sensitivity score: 0 for the first, 0 for the second.

Going from `CNC(=O)c1ccc(N2C(=S)N(c3ccc(C#N)c(C(F)(F)F)c3)C(=O)C2(C)C)cc1F` [Enzalutamide] to `COC(=O)c1ccc2c(c1)NC(=O)/C2=C(\Nc1ccc(N(C)C(=O)CN2CCN(C)CC2)cc1)c1ccccc1` [Nintedanib], the drug sensitivity score rises from 0 to 3.08.

`CCc1c2c(nc3ccc(OC(=O)N4CCC(N5CCCCC5)CC4)cc13)-c1cc3c(c(=O)n1C2)COC(=O)[C@]3(O)CC` [Irinotecan] gave a drug sensitivity score of 7.54.

Test system: MDA-MB-468
Test: as above
Details: incubation time: 72 h
Method in brief: as §1

Going from `CCn1c(-c2nonc2N)nc2cnc(Oc3cccc(NC(=O)c4ccc(OCCN5CCOCC5)cc4)c3)cc21` to `COc1cc2ncnc(Nc3ccc(F)c(Cl)c3)c2cc1OCCCN1CCOCC1` [Gefitinib], the drug sensitivity score rises from 0 to 5.4.

Going from `N#Cc1ccc(COC[C@H]2O[C@@H](n3c(NCc4ccc(Cl)c(Cl)c4)nc4c(N)ncnc43)[C@H](O)[C@@H]2O)cc1` to `CCOC(=O)CCNc1cc(N2CCc3ccccc3CC2)nc(-c2ccccn2)n1` [GSK-J4], the drug sensitivity score rises from 2.09 to 19.9.

Going from `COc1cc(O)c2c(c1)/C=C/C[C@H](O)[C@H](O)C(=O)/C=C\C[C@H](C)OC2=O` [(5Z)-7-Oxozeaenol] to `COc1cc(OC2CCN(C)CC2)ccc1Nc1ncc2c(n1)n(C1CCCC1)c(=O)n2C` [AZ 3146], the drug sensitivity score falls from 9.6 to 2.06.

First: CNC(=O)c1cccc(-c2ccc3c(N4CCOC[C@@H]4C)nc(N4CCOC[C@@H]4C)nc3n2)c1 [AZD2014]
Second: Cc1cc(Nc2cc(CN3CCOCC3)c3nc(C)c(Cc4ccc(Cl)cc4F)n3n2)n[nH]1 [Gandotinib]
The drug sensitivity score of the first is higher: 11.4 for the first, 9.64 for the second.

Going from `CN(C)c1nc(N(C)C)nc(N(C)C)n1` [Altretamine] to `COc1cc2c(NC3CCN(C(C)C)CC3)nc(N3CCC(F)(F)CC3)nc2cc1OCCCN1CCCC1` [UNC0642], the drug sensitivity score rises from 0 to 7.75.

Compared with `Nc1cc(C(F)(F)F)c(-c2cc(N3CCOCC3)nc(N3CCOCC3)n2)cn1` [Buparlisib], `CNC(=O)c1ccc(N2C(=S)N(c3ccc(C#N)c(C(F)(F)F)c3)C(=O)C23CCC3)cc1F` [RD162] is lower in drug sensitivity score: 6.3 for the first, 0 for the second.

First: CNC(=O)c1ccc(N2C(=S)N(c3ccc(C#N)c(C(F)(F)F)c3)C(=O)C2(C)C)cc1F [Enzalutamide]
Second: COC(=O)c1ccc2c(c1)NC(=O)/C2=C(\Nc1ccc(N(C)C(=O)CN2CCN(C)CC2)cc1)c1ccccc1 [Nintedanib]
The drug sensitivity score of the first is lower: 0 for the first, 5.28 for the second.

`CCc1c2c(nc3ccc(OC(=O)N4CCC(N5CCCCC5)CC4)cc13)-c1cc3c(c(=O)n1C2)COC(=O)[C@]3(O)CC` [Irinotecan] showed a drug sensitivity score of 7.12.

Test system: MFM-223
Test: as above
Details: incubation time: 72 h
Method in brief: as §1

Going from `CCn1c(-c2nonc2N)nc2cnc(Oc3cccc(NC(=O)c4ccc(OCCN5CCOCC5)cc4)c3)cc21` to `CNC(=O)c1cccc(-c2ccc3c(N4CCOC[C@@H]4C)nc(N4CCOC[C@@H]4C)nc3n2)c1` [AZD2014], the drug sensitivity score rises from 0 to 15.7.

First: N#Cc1ccc(COC[C@H]2O[C@@H](n3c(NCc4ccc(Cl)c(Cl)c4)nc4c(N)ncnc43)[C@H](O)[C@@H]2O)cc1
Second: COc1cc(O)c2c(c1)/C=C/C[C@H](O)[C@H](O)C(=O)/C=C\C[C@H](C)OC2=O [(5Z)-7-Oxozeaenol]
The drug sensitivity score of the first is lower: 0.407 for the first, 5.76 for the second.

Compound `COc1cc(OC2CCN(C)CC2)ccc1Nc1ncc2c(n1)n(C1CCCC1)c(=O)n2C` [AZ 3146] has a drug sensitivity score of 0.
